# Laboratory results published in ChEMBL document CHEMBL4138191, “Organic arsenicals target thioredoxin reductase followed by oxidative stress and mitochondrial dysfunction resulting in apoptosis” (Eur J Med Chem, 2018).
# Active and inactive are the calls of the source. The rule behind the calls is not given here.
# Assays:
# [1] = organism: Homo sapiens; test: Effect on glutathione peroxidase catalytic activity in human HL60 cells; assay type: cell-based
# [2] = system: HL-60; test: Induction of cell death in human HL60 cells at 0.4 uM after 24 hrs in absence of BSO by MTT assay; assay type: functional, cell-based
# [3] = system: SGC-7901; test: Cytotoxicity against human SGC7901 cells after 48 hrs by MTT assay; assay type: functional, cell-based; conditions: for IC50: SGC-7901, 48 h
# [4] = system: HL-60; test: Induction of apoptosis in human HL60 cells assessed as apoptotic cells at 0.75 to 1.5 uM after 24 hrs by Annexin V-FITC/propidium iodide staining-based flow cytometry; assay type: functional
# [5] = system: HL-60; test: Induction of mitochondrial dysfunction in human HL60 cells assessed as increase in cytochome c levels in cytosol at 1.5 uM after 24 hrs by ELISA relative to control; assay type: functional
# [6] = system: HL-60; test: Potentiation of H2O2-induced cytotoxicity in human HL60 cells assessed as induction of cell death at 1.5 to 2 uM preincubated for 6 hrs followed by compound washout and subsequent H2O2 addition measured after 18 hrs by MTT assay; assay type: functional, cell-based
# [7] = system: HL-60; test: Reduction of mitochondrial membrane potential in human HL60 cells assessed as decrease in ATP levels at 0.75 to 1.5 uM after 24 hrs; assay type: functional, cell-based
# [8] = system: HL-60; test: Induction of ROS generation in human HL60 cells assessed as reduction in intracellular thiols up to 2.5 uM incubated for 12 to 24 hrs by DTNB titration method; assay type: functional, cell-based
# [9] = system: HL-60; test: Induction of cell death in human HL60 cells at 1 to 1.5 uM after 24 hrs in presence of antioxidant resveratrol by trypan blue assay; assay type: functional, cell-based
# [10] = system: HL-60; test: Induction of cell death in human HL60 cells at 1 to 1.5 uM after 24 hrs in presence of antioxidant DTT by trypan blue assay; assay type: functional, cell-based
# [11] = system: HL-60; test: Induction of cell death in human HL60 cells at 1 to 1.5 uM after 24 hrs in presence of antioxidant L-ascorbic acid by trypan blue assay; assay type: functional, cell-based
# [12] = system: SGC-7901; test: Cytotoxicity against human SGC7901 cells after 24 hrs by MTT assay; assay type: functional, cell-based; conditions: for IC50: SGC-7901, 24 h
# [13] = system: HL-60; test: Induction of ROS generation in human HL60 cells at 1.5 uM after 24 hrs by DCFH-DA or DHE staining-based fluorescence microscopic analysis; assay type: functional, cell-based
# [14] = system: HL-60; test: Induction of cell death in human HL60 cells at 0.4 uM after 24 hrs in presence of […] BSO by MTT assay; assay type: functional, cell-based
# [15] = system: Liver; test: Induction of mitochondrial dysfunction in Wistar rat liver assessed as swelling at 20 uM in presence of calcium related inhibitor EGTA; assay type: functional; conditions: mitochondria
# [16] = system: HL-60; test: Induction of apoptosis in human HL60 cells assessed as chromatin condensation at 0.75 to 1.5 uM after 24 hrs by Hoechst 33342 staining-based laser scanning confocal microscopic analysis; assay type: functional, cell-based
# [17] = system: HL-60; test: Induction of mitochondrial dysfunction in human HL60 cells assessed as increase in intracellular calcium level at 0.75 to 1.5 uM after 4 to 24 hrs by Fluo-3 AM dye-based flow cytometry; assay type: functional, cell-based
# [18] = system: HL-60; test: Induction of ROS generation in human HL60 cells at 1.5 uM after 24 hrs in presence of antioxidant lipoic acid by DCFH-DA staining-based flow cytometry; assay type: functional, cell-based
# [19] = system: HL-60; test: Induction of cell death in human HL60 cells at 1 to 1.5 uM after 24 hrs in presence of antioxidant lipoic acid by trypan blue assay; assay type: functional, cell-based
# [20] = system: MCF7; test: Cytotoxicity against human MCF7 cells by MTT assay; assay type: functional, cell-based; conditions: TDE = time-dependent effect
# [21] = system: HL-60; test: Induction of mitochondrial membrane potential loss in human HL60 cells at 1 uM after 24 hrs by JC-1 staining-based flow cytometry; assay type: functional, cell-based
# [22] = system: GES1; test: Cytotoxicity against human GES-1 cells after 48 hrs by MTT assay; assay type: cell-based; conditions: for IC50: Homo sapiens, GES1, 48 h; for Activity: human, ges1, 48 h
# [23] = system: HL-60; test: Induction of apoptosis in human HL60 cells assessed as DNA incision in bulk of cells at 0.75 to 1.5 uM after 24 hrs by Hoechst 33342 staining-based laser scanning confocal microscopic analysis; assay type: functional, cell-based
# [24] = system: HL-60; test: Induction of apoptosis in human HL60 cells assessed as less cell quantity at 0.75 to 1.5 uM after 24 hrs by Hoechst 33342 staining-based laser scanning confocal microscopic analysis; assay type: functional
# [25] = target: T1, Glutathione reductase, mitochondrial (Homo sapiens) (UniProt P00390); test: Effect on glutathione reductase catalytic activity in human HL60 cells; assay type: cell-based
# T1 sequence (whole entry): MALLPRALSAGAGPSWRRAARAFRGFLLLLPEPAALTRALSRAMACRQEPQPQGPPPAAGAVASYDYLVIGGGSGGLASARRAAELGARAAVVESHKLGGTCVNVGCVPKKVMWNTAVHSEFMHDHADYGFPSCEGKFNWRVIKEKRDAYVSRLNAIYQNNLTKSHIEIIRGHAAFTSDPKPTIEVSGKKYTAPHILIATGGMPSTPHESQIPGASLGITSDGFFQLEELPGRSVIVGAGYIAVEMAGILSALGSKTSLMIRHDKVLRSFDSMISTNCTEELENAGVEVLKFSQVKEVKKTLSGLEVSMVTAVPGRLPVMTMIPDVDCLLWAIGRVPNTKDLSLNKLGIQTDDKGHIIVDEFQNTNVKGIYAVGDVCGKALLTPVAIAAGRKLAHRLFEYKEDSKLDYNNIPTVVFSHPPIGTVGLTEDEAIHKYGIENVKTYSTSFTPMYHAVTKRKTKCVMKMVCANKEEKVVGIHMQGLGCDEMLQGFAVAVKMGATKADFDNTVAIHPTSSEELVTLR
# [26] = system: HL-60; test: Induction of cell death in human HL60 cells at 1 to 1.5 uM after 24 hrs in presence of antioxidant NAC by trypan blue assay; assay type: functional, cell-based
# [27] = system: HL-60; test: Induction of apoptosis in human HL60 cells assessed as incomplete cell membrane at 0.75 to 1.5 uM after 24 hrs by Hoechst 33342 staining-based laser scanning confocal microscopic analysis; assay type: functional
# [28] = system: Liver; test: Induction of mitochondrial dysfunction in Wistar rat liver assessed as swelling at 20 uM in presence of calcium related inhibitor ruthenium red; assay type: functional; conditions: mitochondria
# [29] = system: HL-60; test: Induction of apoptosis in human HL60 cells assessed as necrotic cells at 0.75 to 1.5 uM after 24 hrs by Annexin V-FITC/propidium iodide staining-based flow cytometry; assay type: functional
# [30] = system: GES1; test: Cytotoxicity against human GES-1 cells after 24 hrs by MTT assay; assay type: cell-based; conditions: for IC50: Homo sapiens, GES1, 24 h; for Activity: human, ges1, 24 h
# [31] = system: HL-60; test: Cytotoxicity against human HL60 cells after 48 hrs by MTT assay; assay type: functional, cell-based; conditions: for IC50: HL-60, 48 h
# [32] = system: HL-60; test: Induction of ROS generation in human HL60 cells at 1.5 uM after 24 hrs by DCFH-DA staining-based flow cytometry; assay type: functional, cell-based
# [33] = system: SGC-7901; test: Cytotoxicity against human SGC7901 cells by MTT assay; assay type: functional, cell-based; conditions: TDE = time-dependent effect
# [34] = system: HL-60; test: Cytotoxicity against human HL60 cells by MTT assay; assay type: functional, cell-based; conditions: TDE = time-dependent effect
# [35] = system: HL-60; test: Induction of cell death in human HL60 cells at 1 to 1.5 uM after 24 hrs in presence of antioxidant vitamin E by trypan blue assay; assay type: functional, cell-based
SMILES,Activity [1],Activity [2],Activity [3],IC50 [3] [µM],Activity [4] [%],fold change (FC) [5],Activity [6],Activity [7],Activity [8],Activity [9],Activity [10],Activity [11],Activity [12],IC50 [12] [µM],Activity [13],Activity [14],Activity [15],Activity [16],Activity [17],Activity [18],also measured
Oc1ccccc1/C=N/c1ccc([As]2SCCCS2)cc1,inactive,Active,Dose-dependent effect,4.05,40,2,Active,Active,Active,Active,inactive,Active,Dose-dependent effect,7.69,Active,Active,inactive,Active,Active,inactive,Activity [19]: inactive; Activity [20]: Tde; Activity [21]: Active; IC50 [22]: 3.55 µM; Activity [22]: Dose-dependent effect; Activity [23]: Active; Activity [24]: Active; Activity [25]: inactive; Activity [26]: inactive; Activity [27]: Active; Activity [28]: inactive; Activity [29]: <=0.2%; IC50 [30]: 5.99 µM; Activity [30]: Dose-dependent effect; Activity [31]: Dose-dependent effect; IC50 [31]: 0.71 µM; Activity [32]: Active; Activity [33]: Tde; Activity [34]: Tde; Activity [35]: Active
O=C(Nc1ccc([As]2SCCCS2)cc1)c1ccccc1O,inactive,Active,Dose-dependent effect,6.75,40,2,Active,Active,Active,Active,inactive,Active,Dose-dependent effect,14.5,Active,Active,inactive,Active,Active,inactive,Activity [19]: inactive; Activity [20]: Tde; Activity [21]: Active; IC50 [22]: 9.07 µM; Activity [22]: Dose-dependent effect; Activity [23]: Active; Activity [24]: Active; Activity [25]: inactive; Activity [26]: inactive; Activity [27]: Active; Activity [28]: inactive; Activity [29]: <=0.2%; IC50 [30]: 13.4 µM; Activity [30]: Dose-dependent effect; Activity [31]: Dose-dependent effect; IC50 [31]: 0.69 µM; Activity [32]: Active; Activity [33]: Tde; Activity [34]: Tde; Activity [35]: Active
